Results from paper PMC7076352 (Pharmaceutics, 2020).

What was measured:
in vivo = assay: in vivo; design: species or system Sprague-Dawley (SD) rats; conditions: Sprague-Dawley, plasma, rat
Procedure: At each time, 0.5 mL of blood was collected in the heparin sodium tubes. Plasma was separated by centrifugation at 4000 rpm for 10 min and stored below −80 °C until bioanalysis. Oasis PRiME HLB SPE cartridges (1 cc/30 mg, Waters, Milford, MA, USA) were used to process the plasma samples (Supplementary Materials).
The generic layout of instrumentation setup of the LVDI-UHPLC-MS/MS was conducted on a Shimadzu UHPLC system consisting of two LC-20ADXR pumps, a DGU-20A3R degasser, and a CBM-20A controller (Kyoto, Japan) with a SCIEX 4500 QTRAP mass spectrometer mounted with an electron spray ionization (ESI) interface as well as an electronic 6-port/2-channel valve (Foster City, CA, USA). Analyst software package (version 1.6.2, SCIEX) was implemented to control and synchronize the entire system, and also for data acquisition and processing. A single analytical run was fragmented into two phases, namely, loading and elution phases, by switching the electronic valve (Figure 2). At the loading phase, the valve was maintained at A-channel. The specimen aliquot of large volume delivered from the auto-sampler was captured onto a guard column. Meanwhile, the pumps were responsible for delivering the mobile phase at a high flow rate, aiming to dilute the sample solvent, thus facilitating the candidate constituents to concentrate on the pre-guard column. Then, the valve was automatically switched to the B-channel to trigger the elution phase. The trapped components were flushed from the pre-guard column into an analytical column, and underwent multiple reaction monitoring (MRM) analysis on the optimized LC gradients. The detailed information of LVDI-UHPLC-MS/MS analysis for pharmacokinetic and cocktail studies is shown in the Supplementary Materials section.

CYP2C19 = assay: In vitro cocktail CYP450 activity assay in rat liver microsomes, CYP2C19 (omeprazole probe)
Outline: (§1)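 Probe substrates were pooled in a single microsomal incubation, with each substrate concentration optimized to keep metabolite formation linear. Metabolites were quantified against isotope-labelled internal standards: hydroxybupropion-[D6] (OHBUP-[D6]) and 5 nM 4′-hydroxydiclofenac-[^13C6] (OHDIC-[^13C6]).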

CYP2B6 = assay: In vitro cocktail CYP450 activity assay in rat liver microsomes, CYP2B6 (bupropion probe)
Outline: as §1

CYP2C9 = assay: In vitro cocktail CYP450 activity assay in rat liver microsomes, CYP2C9 (tolbutamide probe)
Outline: as §1

CYP2D6 = assay: in vitro; conditions: Sprague-Dawley, rat
Outline: as §1

CYP3A4 = assay: in vitro
Outline: as §1

CYP1A2 = molecular target: T1, CYP1A2 (Rattus norvegicus, UniProt P04799); assay: In vitro cocktail CYP450 activity assay in rat liver microsomes, CYP1A2 (phenacetin probe)
T1 sequence (P04799 1-513): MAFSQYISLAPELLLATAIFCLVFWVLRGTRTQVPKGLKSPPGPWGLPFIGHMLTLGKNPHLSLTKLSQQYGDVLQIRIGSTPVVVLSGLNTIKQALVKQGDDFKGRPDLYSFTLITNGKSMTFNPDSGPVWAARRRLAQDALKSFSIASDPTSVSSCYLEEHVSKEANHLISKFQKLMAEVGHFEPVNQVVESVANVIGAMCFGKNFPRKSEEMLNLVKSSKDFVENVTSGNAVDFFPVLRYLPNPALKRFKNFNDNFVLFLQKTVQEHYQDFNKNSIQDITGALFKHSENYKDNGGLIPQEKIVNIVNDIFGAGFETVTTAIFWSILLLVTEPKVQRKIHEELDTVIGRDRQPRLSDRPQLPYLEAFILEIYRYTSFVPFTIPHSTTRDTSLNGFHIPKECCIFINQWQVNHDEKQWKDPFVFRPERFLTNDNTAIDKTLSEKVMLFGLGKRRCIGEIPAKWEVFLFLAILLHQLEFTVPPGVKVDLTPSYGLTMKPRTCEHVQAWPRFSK
Outline: as §1

CYP2E1 [1] = molecular target: T2, CYP2E1 (Rattus norvegicus, UniProt P05182); conditions: IC50 CYP2E1, single components; RLM 0.2 mg/mL, 15 min, triplicate, mean ± SD
CYP2E1 [2] = molecular target: T2, CYP2E1; conditions: Sprague-Dawley, rat, 15 min, pH 7.4
[3] = at the Cmax level in rat plasma, calculated from the dose–response curve

T2 sequence (P05182 whole entry): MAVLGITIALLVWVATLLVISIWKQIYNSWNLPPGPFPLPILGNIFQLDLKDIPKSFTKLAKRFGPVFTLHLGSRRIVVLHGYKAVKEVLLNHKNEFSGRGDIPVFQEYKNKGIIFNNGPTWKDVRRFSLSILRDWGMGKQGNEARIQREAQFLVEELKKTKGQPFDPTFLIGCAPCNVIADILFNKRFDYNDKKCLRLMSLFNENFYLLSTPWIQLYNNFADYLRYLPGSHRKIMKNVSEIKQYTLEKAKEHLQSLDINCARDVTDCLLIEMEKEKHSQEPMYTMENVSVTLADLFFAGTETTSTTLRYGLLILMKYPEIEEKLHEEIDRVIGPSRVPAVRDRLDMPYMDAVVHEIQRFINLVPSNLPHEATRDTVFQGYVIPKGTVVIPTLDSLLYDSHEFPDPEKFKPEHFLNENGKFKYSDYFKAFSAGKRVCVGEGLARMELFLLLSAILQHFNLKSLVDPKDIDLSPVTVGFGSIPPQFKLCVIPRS

In the case of `CC(C)=CCC[C@](C)(O[C@@H]1O[C@H](CO)[C@@H](O)[C@H](O)[C@H]1O)[C@H]1CC[C@]2(C)[C@@H]1[C@H](O)C[C@@H]1[C@@]3(C)CC[C@H](O)C(C)(C)[C@@H]3[C@@H](O[C@@H]3O[C@H](CO)[C@@H](O)[C@H](O)[C@H]3O)C[C@]12C` [GRg1, ginsenoside Rg1], the concentration at […] (in vivo; 0.083 h after oral CNP) is reported as 0.38 ± 0.15 ng/mL, the concentration at 0.25 h (in vivo; 0.25 h after oral CNP) is reported as 0.48 ± 0.07 ng/mL and the concentration at 0.5 h (in vivo; 0.5 h after oral CNP) is reported as 0.53 ± 0.37 ng/mL. For the same compound, the concentration at 1 h (in vivo; 1 h after oral CNP) was 0.4 ± 0.23 ng/mL, the concentration at 1.5 h (in vivo; 1.5 h after oral CNP) was 0.43 ± 0.32 ng/mL and the concentration at 2 h (in vivo; 2 h after oral CNP) was 0.4 ± 0.14 ng/mL. For the same compound, the concentration at 3 h (in vivo; 3 h after oral CNP) was 0.53 ± 0.4 ng/mL, the concentration at 4 h (in vivo; 4 h after oral CNP) was 0.47 ± 0.13 ng/mL and the concentration at 6 h (in vivo; 6 h after oral CNP) was 0.37 ± 0.17 ng/mL. For the same compound, the concentration at 8 h (in vivo; 8 h after oral CNP) was 0.65 ± 0.2 ng/mL, the concentration at 12 h (in vivo; 12 h after oral CNP) was 0.6 ± 0.36 ng/mL and the concentration at 24 h (in vivo; 24 h after oral CNP) was 0.34 ± 0.12 ng/mL. For the same compound, the concentration at 48 h (in vivo; 48 h after oral CNP) was 0.13 ± 0.04 ng/mL, the AUC(0-inf) (in vivo; po, 60 mg/kg) was 16.7 ± 3.93 ng·h/mL and the AUC(0-t) (in vivo; po, 60 mg/kg) was 14 ± 5.03 ng·h/mL. For the same compound, the Cmax (in vivo; po, 60 mg/kg) was 0.78 ± 0.13 ng/mL, the Tmax (in vivo; po, 60 mg/kg) was 4.71 ± 3.71 h and the half-life (in vivo; po, 60 mg/kg) was 11.7 ± 2.09 h. The concentration at 0.25 h (in vivo; po, 60 mg·kg^−1) was 0.56 ± 0.15 ng/mL, the concentration at 0.5 h (in vivo; po, 60 mg·kg^−1) was 0.37 ± 0.12 ng/mL and the concentration at 1 h (in vivo; po, 60 mg·kg^−1) was 0.44 ± 0.19 ng/mL. It also gave a concentration at 1.5 h (in vivo; po, 60 mg·kg^−1) of 0.33 ± 0.21 ng/mL, a concentration at 2 h (in vivo; po, 60 mg·kg^−1) of 0.21 ± 0.05 ng/mL and a concentration at 3 h (in vivo; po, 60 mg·kg^−1) of 0.49 ± 0.29 ng/mL. For the same compound, the concentration at 4 h (in vivo; po, 60 mg·kg^−1) was 0.34 ± 0.32 ng/mL, the concentration at 6 h (in vivo; po, 60 mg·kg^−1) was 0.37 ± 0.13 ng/mL and the concentration at 8 h (in vivo; po, 60 mg·kg^−1) was 0.63 ± 0.14 ng/mL. For the same compound, the concentration at 12 h (in vivo; po, 60 mg·kg^−1) was 0.59 ± 0.27 ng/mL, the concentration at 24 h (in vivo; po, 60 mg·kg^−1) was 0.22 ± 0.13 ng/mL and the concentration at 48 h (in vivo; po, 60 mg·kg^−1) was 0.09 ± 0.01 ng/mL. The IC50 at 15 min (CYP2C19; Sprague-Dawley, rat, pooled rat liver microsomes, pH 7.4, probe omeprazole (1.07 µM, in seven-probe cocktail), IC50 CYP2C19, single components, RLM 0.2 mg/mL, 15 min, triplicate, mean ± SD) was 78.1 ± 5.25 µM, the “Response (% control) CYP2C19” value (CYP2C19; [3]) was 99.83 % control and the IC50 at 15 min (CYP2B6; Sprague-Dawley, rat, pooled rat liver microsomes, pH 7.4, probe bupropion (90 µM, in seven-probe cocktail), IC50 CYP2B6, single components, RLM 0.2 mg/mL, 15 min, triplicate, mean ± SD) was 11 ± 0.87 µM. For the same compound, the “Response (% control) CYP2B6” value (CYP2B6; [3]) was 98.23 % control, the IC50 at 15 min (CYP2C9; Sprague-Dawley, rat, pooled rat liver microsomes, pH 7.4, probe tolbutamide (18 µM, in seven-probe cocktail), IC50 CYP2C9, single components, RLM 0.2 mg/mL, 15 min, triplicate, mean ± SD) was 36.5 ± 1.32 µM and the “Response (% control) CYP2C9” value (CYP2C9; [3]) was 96.27 % control. The “Response (% control) CYP2D6” value (CYP2D6; 15 min, pH 7.4) was 99.88 % control, the IC50 at 15 min (CYP2D6; microsomes, pH 7.4, IC50 CYP2D6) was 55.7 ± 6.08 µM and the IC50 (CYP3A4; Sprague-Dawley, rat, microsomes, pH 7.4, IC50 CYP3A4, single components, RLM 0.2 mg/mL, 15 min, triplicate, mean ± SD) was 39.2 ± 4.57 µM. The “Response (% control) CYP3A4” value (CYP3A4; [3]) was 97.76 % control, the IC50 (CYP1A2; IC50 CYP1A2, single components, RLM 0.2 mg/mL, 15 min, triplicate, mean ± SD) was 13.1 ± 8.24 µM and the “Response (% control) CYP1A2” value (CYP1A2; [3]) was 98.46 % control. For the same compound, the IC50 (CYP2E1 [1]) was 34.1 ± 4.76 µM and the “Response (% control) CYP2E1” value (CYP2E1 [2]) was 99.57 % control.
